In brackets after ≈: the same amount, converted by molar mass.
What was measured:
Assay type in all cases: functional
Pseudomonas aeruginosa [1] = test: Antibacterial activity against Pseudomonas aeruginosa MTCC 741 assessed as growth inhibition after 24 hr by agar streak dilution method; conditions: MTCC 741, 24 h
Shigella flexneri [2] = test: Antibacterial activity against Shigella flexneri MTCC 1457 assessed as growth inhibition after 24 hr by agar streak dilution method; conditions: MTCC 1457, 24 h
Bacillus cereus [3] = test: Antibacterial activity against Bacillus cereus MTCC 430 assessed as growth inhibition after 24 hr by agar streak dilution method; conditions: MTCC 430, 24 h
[4] = test system: Mycobacterium tuberculosis; test: Antimycobacterial activity against Mycobacterium tuberculosis H37Rv assessed as growth inhibition measured within 10 days by BACTEC MGIT method; conditions: 240 h
Klebsiella pneumoniae [5] = test: Antibacterial activity against Klebsiella pneumoniae MTCC 109 assessed as growth inhibition at 3.12 to 50 ug/mL after 24 hr by agar disk diffusion method
Bacillus cereus [6] = test: Antibacterial activity against Bacillus cereus MTCC 430 assessed as growth inhibition at 3.12 to 50 ug/mL after 24 hr by agar disk diffusion method
Aspergillus clavatus [7] = test: Antifungal activity against Aspergillus clavatus MTCC 1323 assessed as growth inhibition after 48 hr by agar streak dilution method; conditions: MTCC 1323, 48 h
Aspergillus fumigatus [8] = test: Antifungal activity against Aspergillus fumigatus MTCC 343 assessed as growth inhibition at 3.12 to 50 ug/mL after 24 hr by agar disk diffusion method
Candida albicans [9] = test: Antifungal activity against Candida albicans MTCC 183 assessed as growth inhibition at 3.12 to 50 ug/mL after 24 hr by agar disk diffusion method
Aspergillus clavatus [10] = test: Antifungal activity against Aspergillus clavatus MTCC 1323 assessed as growth inhibition at 3.12 to 50 ug/mL after 24 hr by agar disk diffusion method
Staphylococcus aureus [11] = test: Antibacterial activity against Staphylococcus aureus MTCC 96 assessed as growth inhibition after 24 hr by agar streak dilution method; conditions: MTCC 96, 24 h
Escherichia coli [12] = test: Antibacterial activity against Escherichia coli MTCC 739 assessed as growth inhibition after 24 hr by agar streak dilution method; conditions: MTCC 739, 24 h
[13] = test system: Mycobacterium tuberculosis; test: Antimycobacterial activity against Mycobacterium tuberculosis H37Rv assessed as growth inhibition at MIC after 12 to 28 days by Lowenstein and Jensen agar dilution method
Salmonella typhi [14] = test: Antibacterial activity against Salmonella enterica subsp. enterica serovar Typhi MTCC 733 assessed as growth inhibition after 24 hr by agar streak dilution method; conditions: MTCC 733, 24 h
Aspergillus niger [15] = test: Antifungal activity against Aspergillus niger MTCC 282 assessed as growth inhibition at 3.12 to 50 ug/mL after 24 hr by agar disk diffusion method
Aspergillus fumigatus [16] = test: Antifungal activity against Aspergillus fumigatus MTCC 343 assessed as growth inhibition after 48 hr by agar streak dilution method; conditions: MTCC 343, 48 h
Shigella flexneri [17] = test: Antibacterial activity against Shigella flexneri MTCC 1457 assessed as growth inhibition at 3.12 to 50 ug/mL after 24 hr by agar disk diffusion method
[18] = test system: Mycobacterium tuberculosis; test: Antimycobacterial activity against Mycobacterium tuberculosis H37Rv assessed as growth inhibition after 12 to 28 days by Lowenstein and Jensen agar dilution method
Staphylococcus aureus [19] = test: Antibacterial activity against Staphylococcus aureus MTCC 96 assessed as growth inhibition at 3.12 to 50 ug/mL after 24 hr by agar disk diffusion method
Pseudomonas aeruginosa [20] = test: Antibacterial activity against Pseudomonas aeruginosa MTCC 741 assessed as growth inhibition at 3.12 to 50 ug/mL after 24 hr by agar disk diffusion method
Candida albicans [21] = test: Antifungal activity against Candida albicans MTCC 183 assessed as growth inhibition after 48 hr by agar streak dilution method; conditions: MTCC 183, 48 h
Proteus vulgaris [22] = test: Antibacterial activity against Proteus vulgaris MTCC 1771 assessed as growth inhibition after 24 hr by agar streak dilution method; conditions: MTCC 1771, 24 h
Escherichia coli [23] = test: Antibacterial activity against Escherichia coli MTCC 739 assessed as growth inhibition at 3.12 to 50 ug/mL after 24 hr by agar disk diffusion method
Aspergillus niger [24] = test: Antifungal activity against Aspergillus niger MTCC 282 assessed as growth inhibition after 48 hr by agar streak dilution method; conditions: MTCC 282, 48 h
Salmonella typhi [25] = test: Antibacterial activity against Salmonella enterica subsp. enterica serovar Typhi MTCC 733 assessed as growth inhibition at 3.12 to 50 ug/mL after 24 hr by agar disk diffusion method
Proteus vulgaris [26] = test: Antibacterial activity against Proteus vulgaris MTCC 1771 assessed as growth inhibition at 3.12 to 50 ug/mL after 24 hr by agar disk diffusion method
Klebsiella pneumoniae [27] = test: Antibacterial activity against Klebsiella pneumoniae MTCC 109 assessed as growth inhibition after 24 hr by agar streak dilution method; conditions: MTCC 109, 24 h

| SMILES | MIC (Pseudomonas aeruginosa [1]) | MIC (Shigella flexneri [2]) | MIC (Bacillus cereus [3]) | MIC [4] | inhibition zone (IZ) (Klebsiella pneumoniae [5]) | inhibition zone (IZ) (Bacillus cereus [6]) | MIC (Aspergillus clavatus [7]) | inhibition zone (IZ) (Aspergillus fumigatus [8]) | inhibition zone (IZ) (Candida albicans [9]) | inhibition zone (IZ) (Aspergillus clavatus [10]) | MIC (Staphylococcus aureus [11]) | MIC (Escherichia coli [12]) | growth inhibition (GI) [13] | MIC (Salmonella typhi [14]) | inhibition zone (IZ) (Aspergillus niger [15]) | MIC (Aspergillus fumigatus [16]) | inhibition zone (IZ) (Shigella flexneri [17]) | MIC [18] | inhibition zone (IZ) (Staphylococcus aureus [19]) | inhibition zone (IZ) (Pseudomonas aeruginosa [20]) | other results |
| --- | --- | --- | --- | --- | --- | --- | --- | --- | --- | --- | --- | --- | --- | --- | --- | --- | --- | --- | --- | --- | --- |
| CC1CC(C)CN(c2nc(-c3ccc(NCC(=O)Nc4nc5ccc(I)cc5s4)cc3)nc(N3CC(C)CC(C)C3)n2)C1 (stereo not drawn) | 50 µg/mL (≈ 70.4 µM) | 25 µg/mL (≈ 35.2 µM) | 25 µg/mL (≈ 35.2 µM) | > 6.25 µg/mL | 12 mm | 24 mm | 50 µg/mL (≈ 70.4 µM) | <10 mm | 20 mm | 11 mm | 12.5 µg/mL (≈ 17.6 µM) | 50 µg/mL (≈ 70.4 µM) | 96% | 50 µg/mL (≈ 70.4 µM) | <10 mm | > 50 µg/mL | 23 mm | 200 µg/mL (≈ 281 µM) | 21 mm | 16 mm | MIC (Candida albicans [21]): 50 µg/mL (≈ 70.4 µM); MIC (Proteus vulgaris [22]): 12.5 µg/mL (≈ 17.6 µM); inhibition zone (IZ) (Escherichia coli [23]): 18 mm; MIC (Aspergillus niger [24]): 50 µg/mL (≈ 70.4 µM); inhibition zone (IZ) (Salmonella typhi [25]): 17 mm; inhibition zone (IZ) (Proteus vulgaris [26]): 26 mm; MIC (Klebsiella pneumoniae [27]): 50 µg/mL (≈ 70.4 µM) |
| CC1CC(C)CN(c2nc(-c3ccc(NCC(=O)Nc4nc5ccc(Cl)cc5s4)cc3)nc(N3CC(C)CC(C)C3)n2)C1 (stereo not drawn) | 25 µg/mL (≈ 40.4 µM) | 6.25 µg/mL (≈ 10.1 µM) | 6.25 µg/mL (≈ 10.1 µM) | > 6.25 µg/mL | 23 mm | 27 mm | > 50 µg/mL | <10 mm | 12 mm | <10 mm | 6.25 µg/mL (≈ 10.1 µM) | 25 µg/mL (≈ 40.4 µM) | 97% | 25 µg/mL (≈ 40.4 µM) | 17 mm | > 50 µg/mL | 26 mm | 62.5 µg/mL (≈ 101 µM) | 22 mm | 26 mm | MIC (Candida albicans [21]): 50 µg/mL (≈ 80.7 µM); MIC (Proteus vulgaris [22]): 50 µg/mL (≈ 80.7 µM); inhibition zone (IZ) (Escherichia coli [23]): 21 mm; MIC (Aspergillus niger [24]): 50 µg/mL (≈ 80.7 µM); inhibition zone (IZ) (Salmonella typhi [25]): 22 mm; inhibition zone (IZ) (Proteus vulgaris [26]): 20 mm; MIC (Klebsiella pneumoniae [27]): 50 µg/mL (≈ 80.7 µM) |
| CC1CC(C)CN(c2nc(-c3ccc(NCC(=O)Nc4ccc(F)cc4)cc3)nc(N3CC(C)CC(C)C3)n2)C1 (stereo not drawn) | 12.5 µg/mL (≈ 22.9 µM) | 12.5 µg/mL (≈ 22.9 µM) | 25 µg/mL (≈ 45.8 µM) | > 6.25 µg/mL | 21 mm | 22 mm | 50 µg/mL (≈ 91.6 µM) | 22 mm | 15 mm | 13 mm | 12.5 µg/mL (≈ 22.9 µM) | 25 µg/mL (≈ 45.8 µM) | 97% | 25 µg/mL (≈ 45.8 µM) | 18 mm | 50 µg/mL (≈ 91.6 µM) | 25 mm | 25 µg/mL (≈ 45.8 µM) | 20 mm | 27 mm | MIC (Candida albicans [21]): 50 µg/mL (≈ 91.6 µM); MIC (Proteus vulgaris [22]): 50 µg/mL (≈ 91.6 µM); inhibition zone (IZ) (Escherichia coli [23]): 20 mm; MIC (Aspergillus niger [24]): 50 µg/mL (≈ 91.6 µM); inhibition zone (IZ) (Salmonella typhi [25]): 21 mm; inhibition zone (IZ) (Proteus vulgaris [26]): 16 mm; MIC (Klebsiella pneumoniae [27]): 50 µg/mL (≈ 91.6 µM) |
| CCOc1ccc(NC(=O)CNc2ccc(-c3nc(N4CC(C)CC(C)C4)nc(N4CC(C)CC(C)C4)n3)cc2)cc1 (stereo not drawn) | 50 µg/mL (≈ 87.4 µM) | 25 µg/mL (≈ 43.7 µM) | 50 µg/mL (≈ 87.4 µM) | > 6.25 µg/mL | <10 mm | 20 mm | 50 µg/mL (≈ 87.4 µM) | <10 mm | 24 mm | 14 mm | 25 µg/mL (≈ 43.7 µM) | 12.5 µg/mL (≈ 21.9 µM) | 98% | 25 µg/mL (≈ 43.7 µM) | 19 mm | > 50 µg/mL | 22 mm | 25 µg/mL (≈ 43.7 µM) | 19 mm | 16 mm | MIC (Candida albicans [21]): 25 µg/mL (≈ 43.7 µM); MIC (Proteus vulgaris [22]): 12.5 µg/mL (≈ 21.9 µM); inhibition zone (IZ) (Escherichia coli [23]): 24 mm; MIC (Aspergillus niger [24]): 25 µg/mL (≈ 43.7 µM); inhibition zone (IZ) (Salmonella typhi [25]): 21 mm; inhibition zone (IZ) (Proteus vulgaris [26]): 25 mm; MIC (Klebsiella pneumoniae [27]): 50 µg/mL (≈ 87.4 µM) |
